# Patent publication US8597904B2, “Pharmaceutical compositions for the treatment of conditions responsive to proteasome inhibition” (priority 2007, dated 2013)
# Key:
# [1] = target: T1, human erythrocyte 20S proteasomes, chymotrypsin-like activity (Homo sapiens, UniProt P28074); assay type: biochemical; settings: for inhibition of chymotrypsin-like activity: 37° C., 100 μM Suc-LLVY-AMC
# T1 construct: which contains human erythrocyte 20S proteasomes; purchased BIOMOL International AK-740; host or cells: human erythrocytes
# Experimental: A 100 μl reaction volume contained 2 μg/ml 20S proteasome, 100 μM substrate, and the desired concentrations of syringolin A in dilution buffer (50 mM Tris-HCl, pH 7.5, 25 mM KCl, 10 mM NaCl, 1 mM MgCl2). Epoximicin and MG132 (BIOMOL® International) were used as test inhibitors. The release of free AMC (7-amino-4-methylcoumarin) at 37° C. was monitored with an MWGt Sirius HT fluorescence microplate reader (BIO-TEK® Instruments) equipped with a 360 nm excitation and a 460 nm emission filter. Proteolytic activities were measured as the increase in relative fluorescence units (RFU) over time (FIG. 7A-C). […] The initial velocities (vi) were determined from the time derivative of these curves and plotted versus the corresponding inhibitor concentration ([I]). […] Using SigmaPlot, the data were fitted to the hyperbolic equation vi=c+[v0/(Ki′+[I])], where v0 is the velocity of the control. […] The rate of covalent inhibition (kassociation), which equals kobs/[I] was calculated over the range of inhibitor concentrations given in parentheses in FIG. 7D. Values in FIG. 7D represent means±standard deviation.
# The fluorogenic substrates Suc-LLVY-AMC, Boc-LRR-AMC, and Z-LLE-AMC (BIOMOL® International) were used to monitor chymotrypsin-like, trypsin-like, and caspase-like activities, respectively. […] The release of free AMC (7-amino-4-methylcoumarin) at 37° C. was monitored with an MWGt Sirius HT fluorescence microplate reader (BIO-TEK® Instruments) equipped with a 360 nm excitation and a 460 nm emission filter.
# [2] = system: TH-MYCN transgenic mouse; assay: tumor reduction in TH-MYCN mouse model of human neuroblastoma; assay type: in vivo; settings: homozygous mice, i.p. and/or i.v., every 72 hours for 3 to 6 weeks, vs untreated mice
# Text: The TH-MYCN transgenic mouse is a well-established neuroblastoma mouse model (Hansfored, et al. 2004. PNAS 101(34):12664-12669; Weiss, et al. 2007. Cancer Res 67(19):9435-9442; Weiss, et al. 2000. Cancer Res 6″2483-2487, each of which is incorporated herein by reference in its entirety). The tumors are caused by targeted expression of MYCN to the neural crest under the control of the rat tyrosine hydroxylase promoter, where the mice develop a tumor phenotype that closely resembles the human disease. The tumors in this strain of mouse generally develop in the abdominal and thoracic areas. TH-MYCN breeder pairs are supplied as hemizygote (129×1/SvJ-Tg(TH-MYCN)41Waw) and a wild type mate (129×1/SvJ).
# Test compounds are administered to homozygous mice at a dose that is developed based upon the results of the initial dose and toxicity study (Example 15). Two to four doses per compound are administered by i.p. and/or i.v. methods into homozygous mice when palpable tumors begin to form. Vehicle is delivered […] as a control. Further doses are administered thereafter every 72 hours for 3 to 6 weeks. Between eight to twelve mice are tested in the study for administration of each compound. […] At the conclusion of the study, the mice are sacrificed and tumor size and number of tumors are assessed.
# [3] = target: T2, human erythrocyte 20S proteasomes, trypsin-like activity (Homo sapiens, UniProt Q99436); assay: 20S Proteasome Assay Kit, Boc-LRR-AMC substrate; assay type: biochemical; settings: 37° C., 100 μM Boc-LRR-AMC
# T2 construct: which contains human erythrocyte 20S proteasomes; purchased BIOMOL International AK-740; host or cells: human erythrocytes
# Experimental: The eukaryotic 20S proteasome contains three catalytic subunits (β1, β2, and (β5) conferring caspase-like, trypsin-like and chymotrypsin-like proteolytic activities, respectively (Borissenko and Groll. 2007. Chem. Rev. 107:687-717, which is incorporated herein by reference in its entirety). Syringolin A was tested as a proteasome inhibitor using the 20S Proteasome Assay Kit for Drug Discovery AK-740 (BIOMOL® International, Plymouth Meeting, PA, USA), which contains human erythrocyte 20S proteasomes, in a 96-well microtiter plate. The fluorogenic substrates Suc-LLVY-AMC, Boc-LRR-AMC, and Z-LLE-AMC (BIOMOL® International) were used to monitor chymotrypsin-like, trypsin-like, and caspase-like activities, respectively. […] The release of free AMC (7-amino-4-methylcoumarin) at 37° C. was monitored with an MWGt Sirius HT fluorescence microplate reader (BIO-TEK® Instruments) equipped with a 360 nm excitation and a 460 nm emission filter. Proteolytic activities were measured as the increase in relative fluorescence units (RFU) over time (FIG. 7A-C). […] The initial velocities (vi) were determined from the time derivative of these curves and plotted versus the corresponding inhibitor concentration ([I]). […] The rate of covalent inhibition (kassociation), which equals kobs/[I] was calculated over the range of inhibitor concentrations given in parentheses in FIG. 7D. […]
SMILES,inhibition of chymotrypsin-like activity [1],mode of proteasome inhibition (reaction velocity over time) ([1]; FIG. 7A),size and number of tumors [2],inhibition of trypsin-like activity [3]
CC(C)[C@H](NC(=O)N[C@H](C(=O)N[C@H]1/C=C/CCNC(=O)/C=C/[C@H](C(C)C)NC1=O)C(C)C)C(=O)O [syringolin A],inhibited,irreversible proteasome inhibitor,effective in reducing both the size and number of tumors,inhibited
CCCCCCC/C=C/C=C/C(=O)N[C@H](C(=O)N[C@H]1C[C@@H](O)CCNC(=O)/C=C/[C@H](C)NC1=O)[C@@H](C)O [glidobactin A],blocked the chymotrypsin-like activity irreversibly at low concentrations,–,effective in reducing both the size and number of tumors,less sensitive
